According to patent US20230174486A1, “NON-LYSOSOMAL GLUCOSYLCERAMIDASE INHIBITORS AND USES THEREOF” (ALECTOS THERAPEUTICS lNC., priority 2020, published 2023):

Assays:
human GBA2 = molecular target: T1, human GBA2 (Homo sapiens, UniProt Q9HCG7); test: Inhibition of GBA2 in cell lysate (4-methylumbelliferone-β-D glucopyranoside substrate); format: biochemical; settings: homogenate of HEK293T cells stably overexpressing human GBA2, pH 5.5, 37° C., GCase inhibitor present
T1 construct: cellular homogenate
T1 sequence (Q9HCG7 1-927): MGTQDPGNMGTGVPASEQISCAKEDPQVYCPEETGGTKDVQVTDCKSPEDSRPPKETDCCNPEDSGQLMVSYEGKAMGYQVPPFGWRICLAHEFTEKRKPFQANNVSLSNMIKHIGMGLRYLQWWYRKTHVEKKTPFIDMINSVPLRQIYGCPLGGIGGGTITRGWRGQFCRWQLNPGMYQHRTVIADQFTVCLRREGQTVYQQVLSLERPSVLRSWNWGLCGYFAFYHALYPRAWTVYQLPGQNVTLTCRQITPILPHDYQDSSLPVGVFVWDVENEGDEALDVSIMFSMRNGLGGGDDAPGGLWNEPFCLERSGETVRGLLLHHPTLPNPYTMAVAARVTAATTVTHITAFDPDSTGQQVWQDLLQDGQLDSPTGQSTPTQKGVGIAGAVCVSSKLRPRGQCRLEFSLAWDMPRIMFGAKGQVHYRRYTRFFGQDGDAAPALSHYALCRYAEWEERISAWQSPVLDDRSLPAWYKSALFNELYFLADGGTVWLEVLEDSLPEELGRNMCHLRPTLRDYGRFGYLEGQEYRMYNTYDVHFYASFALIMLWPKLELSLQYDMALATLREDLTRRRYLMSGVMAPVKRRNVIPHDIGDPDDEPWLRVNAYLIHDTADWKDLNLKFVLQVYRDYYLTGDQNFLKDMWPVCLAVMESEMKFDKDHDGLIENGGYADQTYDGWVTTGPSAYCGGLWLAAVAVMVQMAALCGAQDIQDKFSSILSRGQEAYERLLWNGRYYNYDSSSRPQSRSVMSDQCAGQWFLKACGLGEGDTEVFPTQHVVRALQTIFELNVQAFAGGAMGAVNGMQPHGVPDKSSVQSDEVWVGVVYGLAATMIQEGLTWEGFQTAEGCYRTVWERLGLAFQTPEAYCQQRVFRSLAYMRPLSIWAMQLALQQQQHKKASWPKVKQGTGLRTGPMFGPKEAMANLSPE
Method: Stable GBA2-expressing HEK293T cells were generated as follows. The PCR-amplified human GBA2 (GBA2 nucleotide accession number BC011363) using the following primers: Sense 5’---CGCAAATGGGCGGTAGGCGTG---3’ and antisense 5’---TAGTCAGCCATGGGGCGGAGA ---3’) was cloned into pLenti-GIII-CMV by ABM Inc. The correctness of the construct was verified by sequencing. Lentivirus particles containing GBA2 in the pLenti-GIII-CMV plasmid were prepared using a third Generation Virus Packaging Mix (ABM cat# LV053-G074) in HEK293T cells and supplied as a virus particle suspension. The virus suspension was used for infection of HEK293T cells. Cell populations stably expressing human GBA2 were selected using puromycin for several weeks as determined by activity assays and western blot.
Various concentrations of test compounds were prepared in DMSO and then diluted into buffer consisting of 100 mM citric acid, 200 mM disodium phosphate with 1% v/v C10E6, pH 5.5. Cellular homogenates (0.25 mg/mL) of the stable HEK293T-overexpressing GBA2 cell line were preincubated for 10 min on ice with an inhibitor of GCase (20 µM (6R,7R,8S)-8-ethyl-4-azaspiro[2.5]octane-6,7-diol). The reaction solution consisted of 20 µL of 750 µM 4-methylumbelliferone-β-D glucopyranoside in 5% DMSO in the same buffer, 20 µL of GBA2-cellular homogenate pre-treated with (6R,7R,8S)-8-ethyl-4-azaspiro[2.5]octane-6,7-diol and 20 µL of various concentrations of test compound in 10% DMSO in the same buffer. The final concentrations in the reaction were 0.083 mg/mL GBA2-cellular homogenate, 250 µM 4-methylumbelliferone-β-D glucopyranoside, and various concentrations of inhibitor. The inhibitor and GBA2-cellular homogenate were preincubated together for 5 min at 37° C. The reaction was initiated by addition of substrate and allowed to proceed for 20 min at 37° C. to assess GBA2 activity. Reactions were stopped by the addition of an equal volume (60 µL) of 0.5 M NaOH, 0.3 M glycine, pH 10.5. Fluorescence was measured on a Biotek Synergy H4 plate reader at wavelengths of 365 nm for excitation and 450 nm for emission. Incubations without added enzyme or added inhibitors were used to define no enzyme activity and maximal enzyme activity, respectively. IC50 values were determined by fitting the data to a log[inhibitor concentration] versus response curve using GraphPad Prism. IC50 values were calculated as the concentration of inhibitor required to inhibit GBA2 activity by 50%.

[1] = molecular target: T2, human non-lysosomal glucosylceramidase (GBA2) (Homo sapiens, UniProt Q9HCG7); test: Binding specificity for GBA2 over other molecules (ratio of Ki or IC50 values); format: biochemical; settings: qualitative statement, no values or other enzyme given
T2 sequence (Q9HCG7 1-927): T1 sequence (Q9HCG7 1-927)
Source text: In some embodiments, one or more of the compounds according to the invention may specifically bind a GBA2. In alternative embodiments, one or more of the compounds according to the invention may specifically bind the active site of a GBA2. […] In alternative embodiments, one or more of the compounds according to the invention may specifically bind the human non-lysosomal glucosylceramidase (GBA2) over the human lysosomal glucosylceramidase (GCase) and/or the human cytosolic glucosylceramidase (GBA3). In alternative embodiments, one or more of the compounds according to the invention may specifically bind the human non-lysosomal glucosylceramidase (GBA2) over the human glucosylceramide synthase (GCS). In alternative embodiments, one or more of the compounds according to the invention may specifically bind the human non-lysosomal glucosylceramidase (GBA2) over an intestinal alpha-glucosidase, where the intestinal alpha-glucosidase may be a sucrase-isomaltase or a maltase-glucoamylase.

Structure (SMILES) | GBA2 IC50 (human GBA2) | binding specificity, Ki(other molecule)/Ki(GBA2) or IC50(other molecule)/IC50(GBA2) [1]
OC[C@H]1[C@@H](O)[C@H](O)[C@@H](O)CN1CCc1ccc(-c2ccccc2)cc1 [Example 20, (2S,3R,4R,5S)-1-(2-([1,1′-biphenyl]-4-yl)ethyl)-2-(hydroxymethyl)piperidine-3,4,5-triol] | ∗∗∗ | enhanced binding specificity
OC[C@H]1[C@@H](O)[C@H](O)[C@@H](O)CN1CCc1c(F)cc(C2CCOCC2)cc1F [Example 21, (2S,3R,4R,5S)-1-(2,6-difluoro-4-(tetrahydro-2H-pyran-4-yl)phenethyl)-2-(hydroxymethyl)piperidine-3,4,5-triol] | ∗∗∗ | enhanced binding specificity
CCCCOc1ccc(CCN2C[C@H](O)[C@@H](O)[C@H](O)[C@@H]2CO)cc1 [Example 22, (2S,3R,4R,5S)-1-(4-butoxyphenethyl)-2-(hydroxymethyl)piperidine-3,4,5-triol] | ∗∗∗ | enhanced binding specificity
CCCCOc1cc(F)c(CCN2C[C@H](O)[C@@H](O)[C@H](O)[C@@H]2CO)c(F)c1 [Example 23, (2S,3R,4R,5S)-1-(4-butoxy-2,6-difluorophenethyl)-2-(hydroxymethyl)piperidine-3,4,5-triol] | ∗∗∗ | enhanced binding specificity
OC[C@H]1[C@@H](O)[C@H](O)[C@@H](O)CN1CC1CCN(c2ccc(F)cc2)CC1 [Example 24, (2S,3R,4R,5S)-1-((1-(4-fluorophenyl)piperidin-4-yl)methyl)-2-(hydroxymethyl)piperidine-3,4,5-triol] | ∗∗∗ | enhanced binding specificity
OC[C@H]1[C@@H](O)[C@H](O)[C@@H](O)CN1C[C@H]1CCN(c2ncccc2C(F)(F)F)C1 [Example 25, (2S,3R,4R,5S)-2-(hydroxymethyl)-1—(((R)—1-(3-(trifluoromethyl)pyridin-2-yl)pyrrolidin-3-yl)methyl)piperidine-3,4,5-triol] | ∗∗∗ | enhanced binding specificity
OC[C@H]1[C@@H](O)[C@H](O)[C@@H](O)CN1C[C@@H]1CCN(c2ncccc2C(F)(F)F)C1 [Example 27, (2S,3R,4R,5S)-2-(hydroxymethyl)-1—(((S)—1-(3-(trifluoromethyl)pyridin-2-yl)pyrrolidin-3-yl)methyl)piperidine-3,4,5-triol] | ∗∗∗ | enhanced binding specificity
OC[C@H]1[C@@H](O)[C@H](O)[C@@H](O)CN1C[C@@H]1CCN(c2nc(C(F)(F)F)cs2)C1 [Example 28, (2S,3R,4R,5S)-2-(hydroxymethyl)-1—(((S)—1-(4-(trifluoromethyl)thiazol-2-yl)pyrrolidin-3-yl)methyl)piperidine-3,4,5-triol] | ∗∗∗ | enhanced binding specificity
OC[C@H]1[C@@H](O)[C@H](O)[C@@H](O)CN1C[C@H]1CCCN(c2ncccc2C(F)(F)F)C1 [Example 29, (2S,3R,4R,5S)-2-(hydroxymethyl)-1—(((R)—1-(3-(trifluoromethyl)pyridin-2-yl)piperidin-3-yl)methyl)piperidine-3,4,5-triol] | ∗∗∗ | enhanced binding specificity
OC[C@H]1[C@@H](O)[C@H](O)[C@@H](O)CN1C[C@@H]1CCCN(c2ncccc2C(F)(F)F)C1 [Example 31, (2S,3R,4R,5S)-2-(hydroxymethyl)-1—(((S)—1-(3-(trifluoromethyl)pyridin-2-yl)piperidin-3-yl)methyl)piperidine-3,4,5-triol] | ∗∗∗ | enhanced binding specificity
OC[C@H]1[C@@H](O)[C@H](O)[C@@H](O)CN1C[C@@H]1CCCN(c2nc(C(F)(F)F)cs2)C1 [Example 32, (2S,3R,4R,5S)-2-(hydroxymethyl)-1—(((S)—1-(4-(trifluoromethyl)thiazol-2-yl)piperidin-3-yl)methyl)piperidine-3,4,5-triol] | ∗∗∗ | enhanced binding specificity
OC[C@H]1[C@@H](O)[C@H](O)[C@@H](O)CN1C[C@H]1CC[C@@H](C(F)F)CC1 [Example 311, (2S,3R,4R,5S)-1-(((1s,4R)-4-(difluoromethyl)cyclohexyl)methyl)-2-(hydroxymethyl)piperidine-3,4,5-triol] | ∗∗∗ | enhanced binding specificity
OC[C@H]1[C@@H](O)[C@H](O)[C@@H](O)CN1C[C@H]1CC[C@H](C(F)F)CC1 [Example 312, (2S,3R,4R,5S)-1-(((1r,4S)-4-(difluoromethyl)cyclohexyl)methyl)-2-(hydroxymethyl)piperidine-3,4,5-triol] | ∗∗∗ | enhanced binding specificity
CC(F)(F)[C@H]1CC[C@@H](CN2C[C@H](O)[C@@H](O)[C@H](O)[C@@H]2CO)CC1 [Example 313, (2S,3R,4R,5S)-1-(((1s,4R)-4-(1,1-difluoroethyl)cyclohexyl)methyl)-2-(hydroxymethyl)piperidine-3,4,5-triol] | ∗∗∗ | enhanced binding specificity
CC(F)(F)[C@H]1CC[C@H](CN2C[C@H](O)[C@@H](O)[C@H](O)[C@@H]2CO)CC1 [Example 314, (2S,3R,4R,5S)-1-(((1r,4S)-4-(1,1-difluoroethyl)cyclohexyl)methyl)-2-(hydroxymethyl)piperidine-3,4,5-triol] | ∗∗∗ | enhanced binding specificity
